The test system of test [1] is SARS-CoV-2 live virus (Delta strain). As to the kind of experiment: microbe, parasite or virus in culture. It is filed as cell-based.
The target of the next test is PLpro (Severe acute respiratory syndrome coronavirus 2 (2019-nCoV) (SARS-CoV-2), UniProt P0DTD1). In words: Assay for PLpro inhibitory activity (Ub-AMC fluorescence; single point inhibition test and IC50 determination). It is filed as biochemical.
The mark [2] stands for this setting: Severe acute respiratory syndrome coronavirus 2, Calu-3, 48 h.

Values joined by “and” are separate entries in the source; they are usually repeats but may differ in a detail not shown here. Identical values can stand only once.

For `Cc1ccc(N2CC(N(C)C)C2)cc1C(=O)NC1(c2ccc(F)c3ncccc23)CC1` [Example C26], the Inhibition rate/% in test [1] (3.125 nM, Calu-3 cells, Delta strain, 48 h, three replicate values) is 2.076% and 45.3104% and −0.0016%; in test [1] (6.25 nM, Calu-3 cells, Delta strain, 48 h, three replicate values), 37.9405% and 58.6715% and 67.2927%; in test [1] (12.5 nM, Calu-3 cells, Delta strain, 48 h, three replicate values), −4.0599% and 50.6792% and 17.0436%; in test [1] (25 nM, Calu-3 cells, Delta strain, 48 h, three replicate values) it was −64.656% and 17.2863% and 31.5856%; in test [1] (50 nM, Calu-3 cells, Delta strain, 48 h, three replicate values), 92.4972% and 64.3219% and 67.0889%; in test [1] (100 nM, Calu-3 cells, Delta strain, 48 h, three replicate values), 93.9064% and 96.0939%. Also, the Inhibition rate/% in test [1] (200 nM, Calu-3 cells, Delta strain, 48 h, three replicate values) was 99.5887% and 99.6848%; in test [1] (400 nM, Calu-3 cells, Delta strain, 48 h, three replicate values), 99.9327% and 99.8544%. In addition, a half-maximal response in test [1] (setting [2]) (EC50) required 36.3 ± 4.11 nM. In addition, the 90% effect level in test [1] (setting [2]) (EC90) was put at 73.1 ± 7.23 nM. Moreover, the inhibition at 0.1 µM in test [1] (Severe acute respiratory syndrome coronavirus 2, Calu-3, 48 h, 100 nM, Calu-3 cells, Delta strain, 48 h, three replicate values, read-out: Inhibition rate/%) was 92.2%. Besides, the inhibition at 0.2 µM in test [1] (Severe acute respiratory syndrome coronavirus 2, Calu-3, 48 h, 200 nM, Calu-3 cells, Delta strain, 48 h, three replicate values, read-out: Inhibition rate/%) amounted to 99.9%. In addition, in test [1] (Severe acute respiratory syndrome coronavirus 2, Calu-3, 48 h, 400 nM, Calu-3 cells, Delta strain, 48 h, three replicate values, read-out: Inhibition rate/%), the inhibition at 0.4 µM is 100%. The “inhibition of SARS-CoV-2 live virus infecting human cells (in words)” value in test [1] (in vitro experiment) was “can effectively inhibit SARS-CoV-2 live virus from infecting human cells”. In addition, at PLpro (fluorescence measured after 15 min of reaction), it took 38.3 ± 5.27 nM to reach half-maximal inhibition (IC50). Further, the inhibition at 1 µM at PLpro (read-out: inhibition of PLpro (1 μM), 1 μM test compound, 100 nM PLpro, 10 μM Ub-AMC, 37° C. 30 min) is 95.9%.

The term EC50 denotes the midpoint of the concentration-response curve. The low end stands for a more potent agent, the high end for a less potent agent. As usually defined, the EC90 is the concentration needed for an effect of 90%. Higher therefore signals weaker potency. As usually defined, the IC50 is the midpoint of a concentration-inhibition curve. Lower therefore signals higher potency.

Values taken from patent US20250289826A1, “PLPRO PROTEIN INHIBITOR, AND PREPARATION METHOD AND APPLICATION THEREOF” (priority 2022, published 2025).
